Laboratory results as given in patent publication US11000033B2, “Ketone or oxime compound, and herbicide” (NISSAN CHEMICAL CORPORATION, priority 2014, dated 2021).

Assays:
Type in all cases: in vivo
soybean [1] = assay: Test Example 4: effect on crop by soil treatment (symbol d); conditions: for d: soybean, effect grade on crop: 320 g/ha
Outline: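 Grown at 25° C. to 30° C. in a greenhouse, the crops came from seed sown spot-wise in sterilized diluvial soil under roughly 1.5 cm of covering soil.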

Veronica persica = assay: Test Example 4: herbicidal effect by soil treatment (symbol R)
Outline: (§1)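 Seeds were sown in sterilized diluvial soil, covered with about 1.5 cm of soil, and the soil surface was sprayed with a water-diluted emulsion of the compound at a predetermined rate. Plants grew in a greenhouse at 25° C. to 30° C.; effects were scored visually 3 weeks after application.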

Setaria viridis = assay: Test Example 5: herbicidal effect by foliage application, plastic box (symbol G); conditions: 320 g/ha, 3 weeks after application
Outline: (§2)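 After sowing into sterilized diluvial soil and growing two weeks under glass at 25° C. to 30° C., seedlings receive a uniform foliar spray of diluted emulsion. Damage is judged visually three weeks on.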

Alopecurus myosuroides = assay: Test Example 4: herbicidal effect by soil treatment (symbol J)
Outline: as §1

soybean [2] = assay: Test Example 5: effect on crop by foliage application, plastic box (symbol d); conditions: 320 g/ha, 3 weeks after application
Outline: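 Plants were raised from seed in a greenhouse (25° C. to 30° C.) after sowing in a plastic box of sterilized diluvial soil.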

Apera spica-venti [3] = assay: Test Example 5: herbicidal effect by foliage application, plastic box (symbol L); conditions: 320 g/ha, 3 weeks after application
Outline: as §2

[4] = test system: Echinochloa crus-galli var. crus-galli; assay: Test Example 5: herbicidal effect by foliage application, plastic box (symbol H); conditions: 320 g/ha, 3 weeks after application
Outline: as §2

Cyperus difformis = assay: Test Example 3: herbicidal effect by foliage application, Wagner pot (symbol E); conditions: application herbicide amount 320 g/ha; for E herbicidal effect grade: Table 24
Outline: (§3)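 The compound, formulated as an emulsion and diluted with water to a predetermined rate, is applied uniformly to leaves of two-week-old seedlings growing in submerged alluvial soil at 25–30 °C. Rice is included. Each plant is assessed 3 weeks later using defined criteria.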

Stellaria media = assay: Test Example 4: herbicidal effect by soil treatment (symbol P)
Outline: as §1

Amaranthus retroflexus = assay: Test Example 4: herbicidal effect by soil treatment (symbol N)
Outline: as §1

Apera spica-venti [5] = assay: Test Example 4: herbicidal effect by soil treatment (symbol L)
Outline: as §1

transplanted rice plant = assay: Test Example 1: effect on crop, application before weed generation in submerged conditions (symbol a); conditions: application herbicide amount 320 g/ha
Outline: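 Alluvial soil pots flooded to 4 cm water, sown with Echinochloa oryzacola, Scirpus juncoides and Monochoria vaginalis, then transplanted with 2.5 leaf stage rice seedlings; pre-emergence application. Greenhouse 25° C. to 30° C.; scored 0–5 by herbicidal ratio 3 weeks after application.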

[6] = test system: Echinochloa crus-galli var. crus-galli; assay: Test Example 3: herbicidal effect by foliage application, Wagner pot (symbol H); conditions: application herbicide amount 320 g/ha; for H (Echinochloa crus-galli var. crus-galli) herbicidal effect grade: Table 24
Outline: as §3

Leptochloa chinensis = assay: Test Example 3: herbicidal effect by foliage application, Wagner pot (symbol D); conditions: application herbicide amount 320 g/ha; for D (Leptochloa chinensis) herbicidal effect grade: Table 24
Outline: as §3

Abutilon theophrasti = assay: Test Example 5: herbicidal effect by foliage application, plastic box (symbol M); conditions: 320 g/ha, 3 weeks after application
Outline: as §2

[7] = application herbicide amount 320 g/ha

| SMILES | Effect on crop grade, d: soybean (soybean [1]; [7]) | Herbicidal effect grade, R: Veronica persica (Veronica persica; [7]) | G: Setaria viridis, herbicidal effect grade (Setaria viridis) | Herbicidal effect grade, J: Alopecurus myosuroides (Alopecurus myosuroides; [7]) | d: soybean, effect on crop grade (soybean [2]) | L: Apera spica-venti, herbicidal effect grade (Apera spica-venti [3]) | H: Echinochloa crus-galli var. crus-galli, herbicidal effect grade [4] | E herbicidal effect grade (Cyperus difformis) | Herbicidal effect grade, P: Stellaria media (Stellaria media; [7]) | Herbicidal effect grade, N: Amaranthus retroflexus (Amaranthus retroflexus; [7]) | Herbicidal effect grade, L: Apera spica-venti (Apera spica-venti [5]; [7]) | a (transplanted rice plant) effect on crop grade (transplanted rice plant) | H (Echinochloa crus-galli var. crus-galli) herbicidal effect grade [6] | D (Leptochloa chinensis) herbicidal effect grade (Leptochloa chinensis) | M: Abutilon theophrasti, herbicidal effect grade (Abutilon theophrasti) | d: soybean, effect grade on crop (soybean [1]) | R: Veronica persica, herbicidal effect grade (Veronica persica; 320 g/ha) | G: Setaria viridis, herbicidal effect (criteria 0-5) (Setaria viridis) | J: Alopecurus myosuroides, herbicidal effect grade (Alopecurus myosuroides; 320 g/ha) | d: soybean, effect on crop (criteria 0-5) (soybean [2]) | further results |
| --- | --- | --- | --- | --- | --- | --- | --- | --- | --- | --- | --- | --- | --- | --- | --- | --- | --- | --- | --- | --- | --- |
| COCCON=C(C)CC1CC(O)=C(c2c(C)cc(-n3cc(Cl)cn3)cc2C)C1=O (stereo not drawn) [9-016] | 0 (Herbicidal ratio of 5% or lower (almost no effect)) | 0 (Herbicidal ratio of 5% or lower (almost no effect)) | 5 (Herbicidal ratio of 90% or more (almost completely withered)) | 5 (Herbicidal ratio of 90% or more (almost completely withered)) | 3 (Herbicidal ratio of 40% or higher and lower than 70%) | 5 (Herbicidal ratio of 90% or more (almost completely withered)) | 5 (Herbicidal ratio of 90% or more (almost completely withered)) | 5 (Herbicidal ratio of 90% or more (almost completely withered)) | 0 (Herbicidal ratio of 5% or lower (almost no effect)) | 0 (Herbicidal ratio of 5% or lower (almost no effect)) | 1 (Herbicidal ratio of 5% or higher and lower than 20%) | 5 (Herbicidal ratio of 90% or more (almost completely withered)) | 5 (Herbicidal ratio of 90% or more (almost completely withered)) | 5 (Herbicidal ratio of 90% or more (almost completely withered)) | 0 (Herbicidal ratio of 5% or lower (almost no effect)) | – | – | – | – | – | – |
| CON=C(C)CC1CC(OC(=O)c2nc(C)sc2C)=C(c2c(C)cc(C)cc2C)C1=O (stereo not drawn) [1-101] | – | – | – | – | – | – | – | – | – | – | – | – | – | – | – | 2 (Herbicidal ratio of 20% or higher and lower than 40%) | 0 (Herbicidal ratio of 5% or lower (almost no effect)) | 5 (Herbicidal ratio of 90% or more (almost completely withered)) | 5 (Herbicidal ratio of 90% or more (almost completely withered)) | 3 (Herbicidal ratio of 40% or higher and lower than 70%) | L: Apera spica-venti, herbicidal effect (criteria 0-5) (Apera spica-venti [3]): 5 (Herbicidal ratio of 90% or more (almost completely withered)); H: Echinochloa crus-galli var. crus-galli, herbicidal effect (criteria 0-5) [4]: 5 (Herbicidal ratio of 90% or more (almost completely withered)); herbicidal effect on E, grade 0-5 (Cyperus difformis): 5 (Herbicidal ratio of 90% or more (almost completely withered)); P: Stellaria media, herbicidal effect grade (Stellaria media; 320 g/ha): 0 (Herbicidal ratio of 5% or lower (almost no effect)); N: Amaranthus retroflexus, herbicidal effect grade (Amaranthus retroflexus; 320 g/ha): 3 (Herbicidal ratio of 40% or higher and lower than 70%); L: Apera spica-venti, herbicidal effect grade (Apera spica-venti [5]; 320 g/ha): 5 (Herbicidal ratio of 90% or more (almost completely withered)); Effect grade on crop, a: transplanted rice plant (transplanted rice plant): 5 (Herbicidal ratio of 90% or more (almost completely withered)); herbicidal effect on H (Echinochloa crus-galli var. crus-galli), grade 0-5 [6]: 5 (Herbicidal ratio of 90% or more (almost completely withered)); herbicidal effect on D (Leptochloa chinensis), grade 0-5 (Leptochloa chinensis): 5 (Herbicidal ratio of 90% or more (almost completely withered)); M: Abutilon theophrasti, herbicidal effect (criteria 0-5) (Abutilon theophrasti): 5 (Herbicidal ratio of 90% or more (almost completely withered)) |
| CCC(CC1CC(O)=C(c2c(C)cc(Br)cc2OC)C1=O)=NOC (mixture of isomers) [13-001] | – | – | 5 (Herbicidal ratio of 90% or more (almost completely withered)) | – | 0 (Herbicidal ratio of 5% or lower (almost no effect)) | 5 (Herbicidal ratio of 90% or more (almost completely withered)) | 5 (Herbicidal ratio of 90% or more (almost completely withered)) | 4 (Herbicidal ratio of 70% or higher and lower than 90%) | – | – | – | 5 (Herbicidal ratio of 90% or more (almost completely withered)) | 5 (Herbicidal ratio of 90% or more (almost completely withered)) | 5 (Herbicidal ratio of 90% or more (almost completely withered)) | 1 (Herbicidal ratio of 5% or higher and lower than 20%) | – | – | – | – | – | d: soybean, effect on crop grade (soybean [1]; [7]): 0 (Herbicidal ratio of 5% or lower (almost no effect)); R: Veronica persica, herbicidal effect grade (Veronica persica; [7]): 0 (Herbicidal ratio of 5% or lower (almost no effect)); J: Alopecurus myosuroides, herbicidal effect grade (Alopecurus myosuroides; [7]): 4 (Herbicidal ratio of 70% or higher and lower than 90%); P: Stellaria media, herbicidal effect grade (Stellaria media; [7]): 0 (Herbicidal ratio of 5% or lower (almost no effect)); N: Amaranthus retroflexus, herbicidal effect grade (Amaranthus retroflexus; [7]): 0 (Herbicidal ratio of 5% or lower (almost no effect)); L: Apera spica-venti, herbicidal effect grade (Apera spica-venti [5]; [7]): 5 (Herbicidal ratio of 90% or more (almost completely withered)) |
| CC(CC1CC(O)=C(c2c(C)cc(C)cc2C)C1=O)=NOCC[S+](C)[O-] (stereo not drawn) [1-125] | – | – | – | – | – | – | – | – | – | – | – | – | – | – | – | 0 (Herbicidal ratio of 5% or lower (almost no effect)) | 0 (Herbicidal ratio of 5% or lower (almost no effect)) | 5 (Herbicidal ratio of 90% or more (almost completely withered)) | 0 (Herbicidal ratio of 5% or lower (almost no effect)) | 0 (Herbicidal ratio of 5% or lower (almost no effect)) | L: Apera spica-venti, herbicidal effect (criteria 0-5) (Apera spica-venti [3]): 5 (Herbicidal ratio of 90% or more (almost completely withered)); H: Echinochloa crus-galli var. crus-galli, herbicidal effect (criteria 0-5) [4]: 5 (Herbicidal ratio of 90% or more (almost completely withered)); herbicidal effect on E, grade 0-5 (Cyperus difformis): 2 (Herbicidal ratio of 20% or higher and lower than 40%); P: Stellaria media, herbicidal effect grade (Stellaria media; 320 g/ha): 0 (Herbicidal ratio of 5% or lower (almost no effect)); N: Amaranthus retroflexus, herbicidal effect grade (Amaranthus retroflexus; 320 g/ha): 0 (Herbicidal ratio of 5% or lower (almost no effect)); L: Apera spica-venti, herbicidal effect grade (Apera spica-venti [5]; 320 g/ha): 5 (Herbicidal ratio of 90% or more (almost completely withered)); Effect grade on crop, a: transplanted rice plant (transplanted rice plant): 5 (Herbicidal ratio of 90% or more (almost completely withered)); herbicidal effect on H (Echinochloa crus-galli var. crus-galli), grade 0-5 [6]: 5 (Herbicidal ratio of 90% or more (almost completely withered)); herbicidal effect on D (Leptochloa chinensis), grade 0-5 (Leptochloa chinensis): 5 (Herbicidal ratio of 90% or more (almost completely withered)); M: Abutilon theophrasti, herbicidal effect (criteria 0-5) (Abutilon theophrasti): 0 (Herbicidal ratio of 5% or lower (almost no effect)) |
| Cc1cc(Br)cc(C)c1C1=C(O)CC(CC(=O)C2CC2)C1=O (racemic) [10-004] | 0 (Herbicidal ratio of 5% or lower (almost no effect)) | 0 (Herbicidal ratio of 5% or lower (almost no effect)) | 5 (Herbicidal ratio of 90% or more (almost completely withered)) | 5 (Herbicidal ratio of 90% or more (almost completely withered)) | 0 (Herbicidal ratio of 5% or lower (almost no effect)) | 5 (Herbicidal ratio of 90% or more (almost completely withered)) | 5 (Herbicidal ratio of 90% or more (almost completely withered)) | 5 (Herbicidal ratio of 90% or more (almost completely withered)) | 0 (Herbicidal ratio of 5% or lower (almost no effect)) | 0 (Herbicidal ratio of 5% or lower (almost no effect)) | 5 (Herbicidal ratio of 90% or more (almost completely withered)) | 5 (Herbicidal ratio of 90% or more (almost completely withered)) | 5 (Herbicidal ratio of 90% or more (almost completely withered)) | 5 (Herbicidal ratio of 90% or more (almost completely withered)) | 3 (Herbicidal ratio of 40% or higher and lower than 70%) | – | – | – | – | – | – |
